{"source": "paper PMC11947619", "about": "“Molecular mechanism of Mad2 conformational conversion promoted by the Mad2‐interaction motif of Cdc20” (Protein Science : A Publication of the Protein Society, 2025)", "target": "T1, Mad2^∆β7/β8 (Homo sapiens, UniProt Q13257)", "T1 construct": "a Mad2 variant with a deleted β7/β8 hairpin (Mad2^∆β7/β8: residues 1–165); His6-DoubleStrep-TEV (N); made in house", "experiment": "NMR titration (CSP) of Cdc20^MIM-123-152 into Mad2^∆β7/β8", "type": "binding", "conditions": "25°C", "method": "FIGURE 3 Mad2 conversion rates with different Cdc20^MIM peptides. (a) Schematic of human Cdc20. Box1: Box1 motif; C1: C‐box motif; K1: KEN box motif; MIM: Mad2‐interacting motif, residues 123–137; WD40: WD40 domain, residues 182–480; IR: IR tail. (b) Mad2 conversion in the presence of different Cdc20^MIM peptides. Mad2 conversion was traced at 25°C and the changes in the first 30 min are shown. A black tick indicates where conversion is considered complete. NMR data for O‐Mad2^R133A with Cdc20^MIM‐111‐138 shown for comparison are from Fischer et al. ([2022]). (c) The Cdc20^MIM‐138‐152‐binding site was identified by comparing the spectra of C‐Mad2:Cdc20^MIM‐123‐137 with C‐Mad2:Cdc20^MIM‐123‐152 (boxed in b) and analyzing their CSPs (Figure S8e,f). The Cdc20^MIM‐138‐152‐binding site (blue) is mapped onto the structure of C‐Mad2:Cdc20 from the cryo‐EM structure of the APC/C:MCC complex (PDB 6TLJ) (Alfieri et al., [2016], Alfieri et al., [2020]). The O‐Mad2 structural model is superimposed onto the C‐Mad2 structure for comparison. Cdc20 residues 138–152 are in yellow and residues 126–138 are in green. The β7/β8 hairpin in O‐Mad2 (red) blocks both the binding sites for Cdc20 residues 126–138 and residues 138–152. (d) As in c except the β7/β8 hairpin in O‐Mad2 is removed to expose the Cdc20 binding sites. […] (f) Cdc20^MIM‐123‐152 was titrated into Mad2^∆β7/β8 and its binding was analyzed by NMR. […]", "note": "Residues, ends and D or L forms follow the SMILES beside them.", "data": [{"smiles": "CC[C@H](C)[C@H](NC(=O)[C@H](CCCCN)NC(=O)[C@H](C)NC(=O)[C@H](CCC(=O)O)NC(=O)[C@H](CCC(=O)O)NC(=O)[C@@H](NC(=O)[C@H](CC(=O)O)NC(=O)[C@@H](N)Cc1ccccc1)C(C)C)C(=O)N[C@@H](CC(C)C)C(=O)N[C@@H](CCCNC(=N)N)C(=O)N[C@@H](CC(C)C)C(=O)N[C@@H](CO)C(=O)NCC(=O)N[C@@H](CCCCN)C(=O)N1CCC[C@H]1C(=O)N[C@@H](CCC(N)=O)C(=O)N[C@@H](CC(N)=O)C(=O)N[C@@H](C)C(=O)N1CCC[C@H]1C(=O)N[C@@H](CCC(=O)O)C(=O)NCC(=O)N[C@@H](Cc1ccc(O)cc1)C(=O)N[C@@H](CCC(N)=O)C(=O)N[C@@H](CC(N)=O)C(=O)N[C@@H](CCCNC(=N)N)C(=O)N[C@@H](CC(C)C)C(=O)N[C@@H](CCCCN)C(=O)N[C@H](C(=O)N[C@@H](CC(C)C)C(=O)N[C@@H](Cc1ccc(O)cc1)C(=O)O)C(C)C", "note": "[Cdc20^MIM‐123‐152] (H-FDVEEAKILRLSGKPQNAPEGYQNRLKVLY-OH; N-terminus and C-terminus assumed)", "values": [{"measurement": "interaction with Mad2^∆β7/β8, in words", "setting": "NMR CSPs on addition of peptide", "value": "weak interaction"}, {"measurement": "Kd", "setting": "NMR titration, fit of resonance with largest CSP vs ligand concentration, 20 mM HEPES pH 7.0, 100 mM NaCl, 1 mM TCEP, 5% D2O, read-out: KD (estimated)", "value": "> 700", "unit": "µM"}]}]}
